Where two headings read alike, the source gives them in different places.
Columns and labels:
[1] = target: recombinant ROCK2 (amino acids 1-552) (Homo sapiens (Human), UniProt O75116); test: Z'-lyte kinase assay, ROCK2; format: biochemical; settings: for inhibition at 0.5 µM: read-out: ROCK2 % inh (0.5 μM)
Procedure: (§1) Determination of compounds ROCK inhibitory activity in vitro (Z'lyte assay): recombinant ROCK1 (amino acids 1-535) and ROCK2 (amino acids 1-552) proteins were purchased from ThermoFisher Scientific. Compounds activities were measured by Z'-lyte kinase kit (ThermoFisher Scientific) and IC50s were calculated.
(§2) Compounds activities were measured by Z'-lyte kinase kit (ThermoFisher Scientific). […] IC50s were calculated using the GraphPad Prism software with kinase activities data that were collected from 9 points serial dilution of compounds treatment. The ROCK inhibition in A7R5 cells and NIH3T3 (Acta2-Luc) cells was performed as described above.
(§3) The percent inhibition rate was calculated by normalizing the kinase activity value obtained with compound treatment against DMSO control value and then applied to the equation, […]. IC50's were calculated using the nonlinear regression curve fit function of the GraphPad Prism software with kinase activities data measured with 9 points 2-fold serial dilution of compounds treatment.

[2] = target: recombinant ROCK1 (amino acids 1-535) (Homo sapiens (Human), UniProt Q13464); test: Z'-lyte kinase assay, ROCK1; format: biochemical; settings: for inhibition at 0.5 µM: read-out: ROCK1 % inh (0.5 μM)
Procedure: as §1, §2, §3

[3] = system: ppMlc (T18/S19) levels in A7R5 cells; test: A7R5 in-cell ELISA assay (ppMlc); format: cell-based, rat
Procedure: Determination of compounds ROCK inhibitory activity in A7R5 cells: rat aortic smooth muscle cell line A7R5 cells were maintained and treated in DMEM medium with 10% of fetal bovine serum. Cells were seeded with density of 5,000 cells/well in 96-well plates for 24 hours and subsequently treated 90 min with testing compounds. Cells were then fixed and processed according to the In-Cell ELISA Colorimetric Detection Kit manual (Thermo Scientific).
A7R5 cells were treated with 9 points 2 fold serial dilution of compounds and ppMlc (T18/S19) levels were determined in order to calculate the cellular IC50s of the compounds.
An A7R5 in-cell ELISA assay was performed to determine ROCK inhibition of test articles. A7R5 cells were treated with 9 points 2-fold serial dilution of compounds and ppMlc (T18/S19) levels were determined to calculate cellular IC50 values of the compounds. […] A7R5 cells were treated with 9 points 2-fold serial dilution of compounds and ppMlc (T18/S19) levels were determined to calculate cellular IC50 values of the compounds using the nonlinear regression curve fit function of the GraphPad Prism software.

[4] = system: ACTA2-promoter-driven-luciferase in NIH3T3 cells; test: NIH3T3 Acta2-promoter driven-luciferase assay; format: cell-based; settings: Mus musculus, plus TGFβ1, 24 hr, read-out: NIH3T3, Acta2-luc, IC50
Procedure: NIH3T3 cells Acta2-promoter driven-luciferase assay: A NIH3T3 cell line stably expressing a luciferase reporter driven by the human ACTA2 gene promoter (−1000-1 bp) was established (NIH3T3-Acta2-luciferase). The cells were plated to confluence and treated with the test compounds plus TGFβ1 for 24 hr. Cells were then lysed and luciferase activity was measured using the LightSwitch luciferase kit from Active Motif.
ROCK inhibitors can be effectively rank ordered by ACTA2-promoter-driven-luciferase reporter cell assay. NIH3T3 cells stably expressing ACTA2-promoter-driven-luciferase were applied to measure ROCK compounds functional IC50's in cells. Cells were plated in 96 well plates to confluence and treated with 9 points serial dilution of compounds in combination with TGFβ1 for 24 hr. Luciferase activities were measured and compound's IC50's were calculated using the nonlinear regression curve fit function of the GraphPad Prism software. Compounds of the invention gave in cell IC50's under 200 nM, see FIG. 1c.

[5] = Rattus norvegicus, A7R5, A7R5 cells, Table 2, read-out: pMLC IC50 (nM) A7R5

Chain of recombinant ROCK1 (amino acids 1-535) (Q13464 1-535): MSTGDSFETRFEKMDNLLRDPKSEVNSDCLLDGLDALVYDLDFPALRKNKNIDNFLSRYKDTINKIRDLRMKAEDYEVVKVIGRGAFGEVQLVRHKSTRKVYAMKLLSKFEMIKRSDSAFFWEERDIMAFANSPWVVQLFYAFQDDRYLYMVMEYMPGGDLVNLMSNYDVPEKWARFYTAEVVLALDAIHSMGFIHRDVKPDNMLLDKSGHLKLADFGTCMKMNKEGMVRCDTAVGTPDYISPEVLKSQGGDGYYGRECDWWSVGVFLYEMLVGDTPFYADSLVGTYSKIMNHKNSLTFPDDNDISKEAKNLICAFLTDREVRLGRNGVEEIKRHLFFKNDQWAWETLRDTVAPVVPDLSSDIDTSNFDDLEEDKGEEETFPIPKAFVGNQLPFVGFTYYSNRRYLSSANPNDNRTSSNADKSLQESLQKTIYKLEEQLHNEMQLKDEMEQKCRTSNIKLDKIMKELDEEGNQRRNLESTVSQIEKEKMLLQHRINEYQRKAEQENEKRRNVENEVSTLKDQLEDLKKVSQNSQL
Chain of recombinant ROCK2 (amino acids 1-552) (O75116 1-552): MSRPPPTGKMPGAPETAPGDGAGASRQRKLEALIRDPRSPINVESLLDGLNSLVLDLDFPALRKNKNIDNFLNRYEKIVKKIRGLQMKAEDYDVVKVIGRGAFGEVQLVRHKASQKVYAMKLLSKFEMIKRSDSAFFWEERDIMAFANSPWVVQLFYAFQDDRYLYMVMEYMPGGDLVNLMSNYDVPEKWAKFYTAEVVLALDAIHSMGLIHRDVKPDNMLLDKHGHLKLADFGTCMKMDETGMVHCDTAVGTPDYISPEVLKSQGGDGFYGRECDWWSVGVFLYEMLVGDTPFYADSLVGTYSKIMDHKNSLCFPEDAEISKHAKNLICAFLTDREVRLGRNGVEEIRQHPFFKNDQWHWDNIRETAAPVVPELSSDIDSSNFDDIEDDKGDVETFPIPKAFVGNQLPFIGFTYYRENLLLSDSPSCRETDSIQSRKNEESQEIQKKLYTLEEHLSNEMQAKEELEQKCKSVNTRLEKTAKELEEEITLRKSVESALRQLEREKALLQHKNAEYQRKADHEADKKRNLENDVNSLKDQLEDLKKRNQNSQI

SMILES | IC50 [1] [µM] | IC50 [2] [µM] | IC50 [3, 5] [nM] | IC50 ([3]; Rattus norvegicus, A7R5, A7R5 cells, ppMlc (T18/S19), in-cell ELISA, read-out: ppMlc IC50) [nM] | inhibition at 0.5 µM [1] [%] | inhibition at 0.5 µM [2] [%] | IC50 [4] [µM] | IC50 ([3]; A7R5 cells, Table 2, read-out: pMLC IC50 (nM) A7R5) [nM]
CNC(C(=O)Nc1ccc(-c2cn[nH]c2)cc1)c1ccccc1OC (stereo not drawn) [Example 8, N-(4-(1H-pyrazol-4-yl)phenyl)-2-(2-methoxyphenyl)-2-(methylamino)acetamide] | 0.003 | 0.012 | 517 | 517 | – | – | – | –
CNC(C(=O)Nc1ccc(-c2cn[nH]c2)cc1)c1cccc(F)c1 (stereo not drawn) [Example 18, N-(4-(1H-pyrazol-4-yl)phenyl)-2-(3-fluorophenyl)-2-(methylamino)acetamide] | 0.01 | – | 504 | – | 89 | 92 | 0.464 | –
CNC(C(=O)Nc1ccc(-c2cn[nH]c2)cc1)c1ccc(F)cc1 (stereo not drawn) [Example 19, N-(4-(1H-pyrazol-4-yl)phenyl)-2-(4-fluorophenyl)-2-(methylamino)acetamide] | 0.0048 | – | 355 | – | 90 | 96 | 0.19 | –
CNC(C(=O)Nc1ccc(-c2cn[nH]c2)cc1)c1cccc(Cl)c1 (stereo not drawn) [Example 20, N-(4-(1H-pyrazol-4-yl)phenyl)-2-(3-chlorophenyl)-2-(methylamino)acetamide] | 0.0017 | – | 263 | – | 94 | 98 | 0.157 | –
CNC(C(=O)Nc1ccc(-c2cn[nH]c2)cc1)c1cccc(OC(F)F)c1 (stereo not drawn) [Example 24, N-(4-(1H-pyrazol-4-yl)phenyl)-2-(3-(difluoromethoxy)phenyl)-2-(methylamino)acetamide] | 0.022 | 0.088 | 334 | – | 97 | – | 1.71 | –
CNC(C(=O)Nc1ccc(-c2cn[nH]c2)cc1)c1ccc2c(C)n[nH]c2c1 (stereo not drawn) [Example 33, N-(4-(1H-pyrazol-4-yl)phenyl)-2-(3-methyl-1H-indazol-6-yl)-2-(methylamino)acetamide] | 0.029 | 0.085 | 913 | – | – | – | 1.48 | –
COCCN[C@@H](C(=O)Nc1ccc(-c2cn[nH]c2)cc1)c1cccc(OC)c1 [Example 58, (R)—N-(4-(1H-pyrazol-4-yl)phenyl)-2-((2-methoxyethyl)amino)-2-(3-methoxyphenyl)acetamide] | 0.012 | 0.057 | 484 | – | – | – | 0.074 | –
COCCN[C@H](C(=O)Nc1ccc(-c2cn[nH]c2)cc1)c1cccc(OC)c1 [Example 59, (S)—N-(4-(1H-pyrazol-4-yl)phenyl)-2-((2-methoxyethyl)amino)-2-(3-methoxyphenyl)acetamide] | 0.239 | 0.759 | 4170 | – | – | – | > 5 | 5550
COc1cccc([C@H](NCCN(C)C)C(=O)Nc2ccc(-c3cn[nH]c3)cc2)c1 [Example 60, (S)—N-(4-(1H-pyrazol-4-yl)phenyl)-2-((2-(dimethylamino)ethyl)amino)-2-(3-methoxyphenyl)acetamide] | 0.098 | 0.258 | 695 | – | – | – | 1.41 | –
COc1cccc([C@@H](NCCN(C)C)C(=O)Nc2ccc(-c3cn[nH]c3)cc2)c1 [Example 61, (R)—N-(4-(1H-pyrazol-4-yl)phenyl)-2-((2-(dimethylamino)ethyl)amino)-2-(3-methoxyphenyl)acetamide] | 0.0029 | 0.0077 | 35 | – | – | – | 0.048 | –
CNCCN[C@@H](C(=O)Nc1ccc(-c2cn[nH]c2)cc1)c1cccc(OC)c1 [Example 62, (R)—N-(4-(1H-pyrazol-4-yl)phenyl)-2-(3-methoxyphenyl)-2-((2-(methylamino)ethyl)amino)acetamide] | 0.0018 | 0.003 | 58 | – | – | – | 0.108 | –
CNCCN[C@H](C(=O)Nc1ccc(-c2cn[nH]c2)cc1)c1cccc(OC)c1 [Example 63, (S)—N-(4-(1H-pyrazol-4-yl)phenyl)-2-(3-methoxyphenyl)-2-((2-(methylamino)ethyl)amino)acetamide] | 0.022 | 0.081 | 548 | – | – | – | 0.633 | –
CNC(C(=O)Nc1cc(OC)c(-c2cn[nH]c2)cc1F)c1cccc(OC)c1 (stereo not drawn) [Example 66, N-(2-fluoro-5-methoxy-4-(1H-pyrazol-4-yl)phenyl)-2-(3-methoxyphenyl)-2-(methylamino)acetamide] | 0.018 | 0.056 | 332 | – | – | – | 0.396 | –
CNC(=O)c1ccc(C(NC)C(=O)Nc2ccc(-c3cn[nH]c3)cc2)cc1 (stereo not drawn) [Example 69, 4-(2-((4-(1H-pyrazol-4-yl)phenyl)amino)-1-(methylamino)-2-oxoethyl)-N-methylbenzamide] | 0.4 | – | > 5000 | – | – | – | > 5 | –
CNC(C(=O)Nc1cc(F)c(-c2cn[nH]c2)cc1OCCN(C)C)c1cccc(OC)c1 (stereo not drawn) [Example 71, N-(2-(2-(dimethylamino)ethoxy)-5-fluoro-4-(1H-pyrazol-4-yl)phenyl)-2-(3-methoxyphenyl)-2-(methylamino)acetamide] | 0.003 | – | 57 | – | – | – | 0.301 | –
CN[C@@H](C(=O)Nc1cc(F)c(-c2cn[nH]c2)cc1OCCN(C)C)c1cccc(OC)c1 [Example 72, (R)—N-(2-(2-(dimethylamino)ethoxy)-5-fluoro-4-(1H-pyrazol-4-yl)phenyl)-2-(3-methoxyphenyl)-2-(methylamino)acetamide] | 0.046 | – | 382 | – | – | – | 0.984 | –
CN[C@H](C(=O)Nc1cc(F)c(-c2cn[nH]c2)cc1OCCN(C)C)c1cccc(OC)c1 [Example 73, (S)—N-(2-(2-(dimethylamino)ethoxy)-5-fluoro-4-(1H-pyrazol-4-yl)phenyl)-2-(3-methoxyphenyl)-2-(methylamino)acetamide] | 0.0016 | – | 15 | – | – | – | 0.122 | –
